Source: EPA's ToxValDB 9.5 (doi:10.2903/j.efsa.2010.1721)

Assays:
[1] = system: Oryctolagus sp.; conditions: reproduction developmental; body weight
[2] = system: Daphnia magna; conditions: chronic/long-term; duration: 21 days; reproduction
[3] = system: Canidae; conditions: chronic; duration: 1 years; oral; Dog Other; organ weight
[4] = system: Oncorhynchus mykiss
[5] = system: Apis mellifera; conditions: acute; duration: 48 hours; oral; unspecified; mortality
[6] = system: Tagia sp.; conditions: acute; duration: 14 days; mortality
[7] = system: Mus musculus; conditions: acute; oral; mortality
[8] = system: Rattus norvegicus
[9] = system: Colinus virginianus; conditions: for LD50: acute, oral, mortality
[10] = system: Anas platyrhynchos; conditions: oral, mortality
[11] = system: Aphidius rhopalosiphi; test: LR50; higher = less toxic; conditions: not reported; mortality
[12] = system: Typhlodromus pyri; test: LR50; higher = less toxic; conditions: not reported; mortality

Work on `CCOc1ccc(NC(=O)OC(C)C)cc1OCC` [Diethofencarb] yielded an NOEL [1] of 300 mg/kg-day, an NOEC [2] of 0.032 mg/L and an NOAEL [3] of 50 mg/kg-day. The LC50 ([4]; acute, duration: 96 hours, mortality) was > 10 mg/L, the NOEC ([4]; chronic/long-term, duration: 88 days, growth) was 0.072 mg/L and the LD50 [5] was > 100 µg/piece. The LC50 [6] was > 1000 mg/kg, the LD50 [7] was > 5000 mg/kg-day and the LD50 ([8]; acute, oral, mortality) was > 5000 mg/kg-day. For the same molecule, the NOAEL ([8]; chronic, duration: 2 years, organ weight) was 42.7 mg/kg-day, the LD50 ([9]; diet) was > 1810 mg/kg-day and the LD50 [9] was > 2250 mg/kg-day. The NOEL ([9]; reproduction developmental) was 78.7 mg/kg-day, the LD50 ([10]; acute, unspecified) was > 2250 mg/kg-day and the LD50 ([10]; short-term, feed) was > 1630 mg/kg-day. The LR50 [11] was > 1500 g/ha and the LR50 [12] was 7.2 g/ha.
